{"source": "patent US20050112573A1", "about": "“Method of detecting toxic substance” (priority 2001, published 2005)", "system": "yeast genes (level of expressed mRNA)", "assay": "DNA chip analysis of expressed mRNA of yeast genes after 2 h culture with a toxic chemical substance", "format": "cell-based, Saccharomyces cerevisiae S288C", "conditions": "for The level of expressed mRNA in the presence of chemical substance/ (ratio to absence of chemical substance): stress protein genes, DNA chip", "protocol": "Yeast (Saccharomyces cerevtisiae S288C (α SUC2mal mel gap2 CUP1)) were cultured at 25° C. on YPD medium (yeast extract 1%, polypepton 2%, glucose 2%). One of toxic chemical substances was added to the cell at logarithmic growth phase, and the cell was further cultured for two hours. Cell was cultured without any chemical substance in the same condition, and was used as control. Concentrations of the chemical substances were defined to inhibit the growth of the yeast but not lead to death.\nAfter the completion of cultivation, the culture was centrifuged to collect the cells. To the cells, sodium acetate buffer (50 mM sodium acetate, 10 mM EDTA, 1% SDS) was added, and the mixture was shaken at 65° C. for five minutes, followed by returning to room temperature, and obtaining the supernatant, which procedure was repeated two times. To the supernatant, ½ amount of a solution of phenol/chloroform was added, and the mixture was centrifuged to give a supernatant, which was added with an equal amount of chloroform, and the mixture was centrifuged to give a supernatant. To the supernatant, an equal amount of isopropanol containing 0.3 M sodium acetate was added, and the mixture was allowed to stand at room temperature for 30 minutes, after which the mixture was centrifuged to give a sediment of the whole RNAs. Seventy % ethanol was added to the sediment, and the mixture was again centrifuged to give a sediment, which was then dried and dissolved in water. mRNA was isolated from the whole RNAs as followings. In view of the fact that a poly A chain is attached to the 3′ terminus of mRNA, a polynucleotide having a poly T structure which was immobilized on the surface of latex beads was used to trap the mRNA, and then the mRNA was washed and eluted with spine column (Oligotex-dT30<Super>mRNA Purification Kit, Takara). Reverse transcription of the mRNA was conducted with a reverse transcriptase (Super Script II Reverse Transcriptase; catalogue No. 18064-014, GibcoBRL) using fluorescence-labeled nucleotides to give cDNAs that were introduced with Cy3-dUTP or Cy5-dUTP during the reverse transcription.\nThe labeled cDNAs were dissolved in TE buffer (10 mM Tris-HCl/1 mM EDTA, pH8.0), and the solution was dropped on the DNA chip containing the whole genes of yeast (DNA Chip Research Inc. Japan) so that the cDNAs were hybridized on the DNA chip at 65° C. for over 12 hours. The fluoresces intensity of the DNA chip was read with a scanner, and the ratio relative to the fluorescence intensity resulting from the absence of chemical substance was estimated as the following, which is shown in Tables 1 to 9: [formula]\nIn the Tables, “Intensity” indicated in the rightmost column is a value of the level of expressed mRNA of each gene in control cells as divided by the average level of the expressions of the whole genes.", "data": [{"smiles": "CCCCC[C@H](O)CC(=O)CCc1ccc(O)c(OC)c1", "note": "[(13), gingerol]", "values": [{"measurement": "The level of expressed mRNA in the presence of chemical substance/ in its absence, gene YDL078C", "setting": "yeast gene YDL078C, ratio of DNA chip fluorescence intensity to that without chemical substance", "result": 1.0}, {"measurement": "The level of expressed mRNA in the presence of chemical substance/ (in its absence), gene YDL215C", "setting": "yeast gene YDL215C, ratio of DNA chip fluorescence intensity to that without chemical substance", "result": 1.5}, {"measurement": "The level of expressed mRNA in the presence of chemical substance/The level of expressed mRNA in the absence of chemical substance", "setting": "yeast gene YDL238C", "result": 2.0}, {"measurement": "The level of expressed mRNA in the presence of chemical substance/The level of expressed mRNA in the absence of chemical substance", "setting": "yeast gene YDR055W", "result": 3.1}, {"measurement": "The level of expressed mRNA in the presence of chemical substance/ (in its absence), gene YDR073W", "setting": "yeast gene YDR073W, ratio of DNA chip fluorescence intensity to that without chemical substance", "result": 0.6}, {"measurement": "The level of expressed mRNA in the presence of chemical substance/ in its absence, gene YDR079W", "setting": "yeast gene YDR079W, energy system protein genes, 2 h culture with the chemical, ratio to control without chemical", "result": 1.3}, {"measurement": "The level of expressed mRNA in the presence of chemical substance/ (ratio to absence), gene YDR079W", "setting": "yeast gene YDR079W, mitochondria-located protein genes, 2 h culture with chemical", "result": 1.3}, {"measurement": "The level of expressed mRNA in the presence of chemical substance/The level of expressed mRNA in the absence of chemical substance", "setting": "yeast gene YDR084C", "result": 1.0}, {"measurement": "The level of expressed mRNA in the presence of chemical substance/The level of expressed mRNA in the absence of chemical substance", "setting": "yeast gene YDR085C", "result": 1.1}, {"measurement": "The level of expressed mRNA in the presence of chemical substance/The level of expressed mRNA in the absence of chemical substance", "setting": "yeast gene YDR104C", "result": 1.6}, {"measurement": "The level of expressed mRNA in the presence of chemical substance/The level of expressed mRNA in the absence of chemical substance", "setting": "yeast gene YDR115W", "result": 1.1}, {"measurement": "The level of expressed mRNA in the presence of chemical substance/The level of expressed mRNA in the absence of chemical substance", "setting": "yeast gene YDR259C", "result": 2.0}, {"measurement": "The level of expressed mRNA in the presence of chemical substance/ (in its absence), gene YDR297W", "setting": "yeast gene YDR297W, ratio of DNA chip fluorescence intensity to that without chemical substance", "result": 0.8}, {"measurement": "The level of expressed mRNA in the presence of chemical substance/The level of expressed mRNA in the absence of chemical substance", "setting": "yeast gene YDR315C", "result": 1.6}, {"measurement": "The level of expressed mRNA in the presence of chemical substance/The level of expressed mRNA in the absence of chemical substance", "setting": "yeast gene YDR358W", "result": 3.2}, {"measurement": "The level of expressed mRNA in the presence of chemical substance/ (ratio to absence), gene YDR377W", "setting": "yeast gene YDR377W, mitochondria-located protein genes, 2 h culture with chemical", "result": 0.7}, {"measurement": "The level of expressed mRNA in the presence of chemical substance/ (in its absence), gene YDR387C", "setting": "yeast gene YDR387C, ratio of DNA chip fluorescence intensity to that without chemical substance", "result": 1.3}, {"measurement": "The level of expressed mRNA in the presence of chemical substance/The level of expressed mRNA in the absence of chemical substance", "setting": "yeast gene YDR388W", "result": 1.7}, {"measurement": "The level of expressed mRNA in the presence of chemical substance/The level of expressed mRNA in the absence of chemical substance", "setting": "yeast gene YDR432W", "result": 1.4}, {"measurement": "The level of expressed mRNA in the presence of chemical substance/The level of expressed mRNA in the absence of chemical substance", "setting": "yeast gene YDR481C", "result": 1.5}, {"measurement": "The level of expressed mRNA in the presence of chemical substance/The level of expressed mRNA in the absence of chemical substance", "setting": "yeast gene YDR510W", "result": 2.0}, {"measurement": "The level of expressed mRNA in the presence of chemical substance/ (ratio to absence of chemical substance)", "setting": "yeast gene YEL039C", "result": 0.5}, {"measurement": "The level of expressed mRNA in the presence of chemical substance/The level of expressed mRNA in the absence of chemical substance", "setting": "yeast gene YEL042W", "result": 0.4}, {"measurement": "The level of expressed mRNA in the presence of chemical substance/The level of expressed mRNA in the absence of chemical substance", "setting": "yeast gene YEL066W", "result": 1.6}, {"measurement": "The level of expressed mRNA in the presence of chemical substance/ (in its absence), gene YER015W", "setting": "yeast gene YER015W, ratio of DNA chip fluorescence intensity to that without chemical substance", "result": 0.8}, {"measurement": "The level of expressed mRNA in the presence of chemical substance/The level of expressed mRNA in the absence of chemical substance", "setting": "yeast gene YER039C", "result": 2.1}, {"measurement": "The level of expressed mRNA in the presence of chemical substance/ (ratio to absence of chemical substance)", "setting": "yeast gene YER057C", "result": 1.0}, {"measurement": "The level of expressed mRNA in the presence of chemical substance/The level of expressed mRNA in the absence of chemical substance", "setting": "yeast gene YER107C", "result": 0.9}, {"measurement": "The level of expressed mRNA in the presence of chemical substance/The level of expressed mRNA in the absence of chemical substance", "setting": "yeast gene YER130C", "result": 1.6}, {"measurement": "The level of expressed mRNA in the presence of chemical substance/The level of expressed mRNA in the absence of chemical substance", "setting": "yeast gene YFL028C", "result": 1.4}, {"measurement": "The level of expressed mRNA in the presence of chemical substance/The level of expressed mRNA in the absence of chemical substance", "setting": "yeast gene YFL043C", "result": 1.5}, {"measurement": "The level of expressed mRNA in the presence of chemical substance/ (in its absence), gene YGL035C", "setting": "yeast gene YGL035C, ratio of DNA chip fluorescence intensity to that without chemical substance", "result": 1.1}, {"measurement": "The level of expressed mRNA in the presence of chemical substance/ (in its absence), gene YGL115W", "setting": "yeast gene YGL115W, ratio of DNA chip fluorescence intensity to that without chemical substance", "result": 0.7}, {"measurement": "The level of expressed mRNA in the presence of chemical substance/ (ratio to absence of chemical substance)", "setting": "yeast gene YGL115W", "result": 0.7}, {"measurement": "The level of expressed mRNA in the presence of chemical substance/The level of expressed mRNA in the absence of chemical substance", "setting": "yeast gene YGL158W", "result": 1.0}, {"measurement": "The level of expressed mRNA in the presence of chemical substance/ (ratio to absence), gene YGL187C", "setting": "yeast gene YGL187C, mitochondria-located protein genes, 2 h culture with chemical", "result": 0.7}, {"measurement": "The level of expressed mRNA in the presence of chemical substance/ (in its absence), gene YGL205W", "setting": "yeast gene YGL205W, ratio of DNA chip fluorescence intensity to that without chemical substance", "result": 1.0}, {"measurement": "The level of expressed mRNA in the presence of chemical substance/The level of expressed mRNA in the absence of chemical substance", "setting": "yeast gene YGL229C", "result": 1.7}, {"measurement": "The level of expressed mRNA in the presence of chemical substance/ in its absence, gene YGR062C", "setting": "yeast gene YGR062C, energy system protein genes, 2 h culture with the chemical, ratio to control without chemical", "result": 1.5}, {"measurement": "The level of expressed mRNA in the presence of chemical substance/ (ratio to absence), gene YGR062C", "setting": "yeast gene YGR062C, mitochondria-located protein genes, 2 h culture with chemical", "result": 1.5}, {"measurement": "The level of expressed mRNA in the presence of chemical substance/ (in its absence), gene YGR096W", "setting": "yeast gene YGR096W, ratio of DNA chip fluorescence intensity to that without chemical substance", "result": 1.1}, {"measurement": "The level of expressed mRNA in the presence of chemical substance/The level of expressed mRNA in the absence of chemical substance", "setting": "yeast gene YGR136W", "result": 1.7}, {"measurement": "The level of expressed mRNA in the presence of chemical substance/The level of expressed mRNA in the absence of chemical substance", "setting": "yeast gene YGR189C", "result": 1.2}, {"measurement": "The level of expressed mRNA in the presence of chemical substance/The level of expressed mRNA in the absence of chemical substance", "setting": "yeast gene YGR213C", "result": 30.4}, {"measurement": "The level of expressed mRNA in the presence of chemical substance/The level of expressed mRNA in the absence of chemical substance", "setting": "yeast gene YGR257C", "result": 2.0}, {"measurement": "The level of expressed mRNA in the presence of chemical substance/ (in its absence), gene YGR287C", "setting": "yeast gene YGR287C, ratio of DNA chip fluorescence intensity to that without chemical substance", "result": 1.7}, {"measurement": "The level of expressed mRNA in the presence of chemical substance/ (in its absence), gene YGR288W", "setting": "yeast gene YGR288W, ratio of DNA chip fluorescence intensity to that without chemical substance", "result": 1.3}, {"measurement": "The level of expressed mRNA in the presence of chemical substance/ (ratio to absence of chemical substance)", "setting": "yeast gene YHL028W", "result": 2.1}, {"measurement": "The level of expressed mRNA in the presence of chemical substance/ (ratio to absence of chemical substance)", "setting": "yeast gene YHL046C", "result": 1.4}, {"measurement": "The level of expressed mRNA in the presence of chemical substance/The level of expressed mRNA in the absence of chemical substance", "setting": "yeast gene YHR004C", "result": 1.1}, {"measurement": "The level of expressed mRNA in the presence of chemical substance/The level of expressed mRNA in the absence of chemical substance", "setting": "yeast gene YHR071W", "result": 2.3}, {"measurement": "The level of expressed mRNA in the presence of chemical substance/The level of expressed mRNA in the absence of chemical substance", "setting": "yeast gene YHR139C", "result": 7.0}, {"measurement": "The level of expressed mRNA in the presence of chemical substance/The level of expressed mRNA in the absence of chemical substance", "setting": "yeast gene YHR142W", "result": 1.2}, {"measurement": "The level of expressed mRNA in the presence of chemical substance/ (in its absence), gene YHR210C", "setting": "yeast gene YHR210C, ratio of DNA chip fluorescence intensity to that without chemical substance", "result": 0.4}, {"measurement": "The level of expressed mRNA in the presence of chemical substance/ (in its absence), gene YIL006W", "setting": "yeast gene YIL006W, ratio of DNA chip fluorescence intensity to that without chemical substance", "result": 0.8}, {"measurement": "The level of expressed mRNA in the presence of chemical substance/ (ratio to absence of chemical substance)", "setting": "yeast gene YIL011W", "result": 0.5}, {"measurement": "The level of expressed mRNA in the presence of chemical substance/The level of expressed mRNA in the absence of chemical substance", "setting": "yeast gene YIL123W", "result": 0.4}]}]}
